Experiments:
NB4 cells = assay: MTS assay, growth inhibition in NB4 cells; type: cell-based; details: after 3 days (FIG. 2(i) legend: 4 day), absorbance 490 nm relative to untreated cells
Method: (§1) HL60 or NB4 cells were diluted in complete growth medium and plated at a density of 5000 cells per 0.1 ml in wells of a 96 well plate. Cells were then treated with various concentrations of the compound of Example 7 (MI-192) or were left untreated as a control in a total volume of 0.2 ml of complete growth medium. After 3 days, relative cell numbers were determined using the MTS assay, as described by the manufacturer (Promega, Southampton, UK). The results shown in FIG. 2(i) are absorbance (490 nm) relative to control cells (untreated cells 100%).

HL60 cells [1] = assay: MTS assay, growth inhibition in HL60 cells; type: cell-based; details: after 3 days (FIG. 2(i) legend: 4 day), absorbance 490 nm relative to untreated cells
Method: as §1

HDAC 3 = HDAC 3 (Homo sapiens, UniProt O15379); assay: Fluorescence-based HDAC isoform assay with electrophoretic separation, HDAC 3 (coexpressed with SMRT fragment); type: biochemical; details: HDAC3 coexpressed with SMRT fragment (residues 395-489), 1 μM FAM-labeled acetylated peptide, 17 h at 25° C.
Method: The inhibitory effects of the compounds of Examples 7 and 9 above on HDAC activity were determined using a fluorescence-based assay with electrophoretic separation of substrate and product carried out using a microfluidic system followed by quantitation of fluorescence intensity in the substrate and product peaks.
The assays were performed using isolated HDAC isoforms that had been expressed as 6×His-tagged fusion proteins in a baculovirus expression system in Sf9 cells. HDACs 1, 2, 3, 6, and 8 were expressed as full length fusion proteins. For HDAC-4 and 7 only catalytic domains were expressed (HDAC-4 CAT and HDAC-7 CAT). The HDAC10 fusion protein was expressed as a carboxy-terminal deletion of 38 amino acids (residues 632-669). HDAC3 was coexpressed with a fragment of the SMRT gene (residues 395-489) to generate enzymatically active protein. Purified proteins were incubated with 1 μM carboxyfluorescein (FAM)-labeled acetylated peptide substrate and test compound for 17 h at 25° C. in HDAC assay buffer containing 100 mM HEPES (pH 7.5), 25 mM KCl, 0.1% BSA, and 0.01% Triton X-100. […] Substrate and product were separated electrophoretically using a Caliper LabChip 3000 system with blue laser excitation and green fluorescence detection (CCD2). The fluorescence intensity in the substrate and product peaks was determined using the Well Analyzer software on the Caliper system. […]

HL60 cells [2] = assay: CD11b flow cytometry, differentiation in HL60 cells; type: cell-based; details: 3 days
Method: HL60 cells were cultured at 0.5×10^6 cells/ml in complete growth medium. Cells (2 ml) were then treated with ATRA (sourced commercially), the compound of Example 7 (MI-192), or left untreated as controls. After 3 days, CD11b expression was determined by flow cytometry using a PE-conjugated anti-CD11b monoclonal antibody.

[3] = tested on: CYP26 RNA expression in HL60 cells; assay: CYP26 RNA expression in HL60 cells (Q-RT-PCR); type: cell-based
Method: (§2) HL60 or NB4 cells were cultured at 1.0×10^6 cells/ml in complete growth medium. Cells (10 ml) were then treated with ATRA, the compound of Example 7(MI-192), or left untreated as controls. After 1 day, the expression of CYP26 and BACT RNAs were determined using quantitative PCR (Taqman). The expression of CYP26 RNA was normalised to BACT, and expression in control cells was set to 1.0.

[4] = tested on: CYP26 RNA expression in NB4 cells; assay: CYP26 RNA expression in NB4 cells (Q-RT-PCR); type: cell-based; details: 1 day, normalised to BACT, control set to 1.0
Method: as §2

Sequence of HDAC 3 (O15379 whole entry, species assumed, the tested form may be a part, canonical isoform): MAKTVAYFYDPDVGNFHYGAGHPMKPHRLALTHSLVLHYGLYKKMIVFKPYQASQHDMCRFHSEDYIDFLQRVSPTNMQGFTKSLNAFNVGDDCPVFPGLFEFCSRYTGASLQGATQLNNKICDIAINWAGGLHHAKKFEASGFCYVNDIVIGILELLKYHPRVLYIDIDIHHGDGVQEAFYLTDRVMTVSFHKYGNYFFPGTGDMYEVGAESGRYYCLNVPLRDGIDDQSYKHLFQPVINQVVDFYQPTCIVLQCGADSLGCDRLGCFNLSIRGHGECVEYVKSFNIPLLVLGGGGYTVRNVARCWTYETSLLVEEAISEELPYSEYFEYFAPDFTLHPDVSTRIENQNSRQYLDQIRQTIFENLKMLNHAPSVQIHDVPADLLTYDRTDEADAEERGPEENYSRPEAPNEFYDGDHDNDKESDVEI
Sequence of HDAC 3 (Q9Y618 395-489 partner limits assumed, species assumed): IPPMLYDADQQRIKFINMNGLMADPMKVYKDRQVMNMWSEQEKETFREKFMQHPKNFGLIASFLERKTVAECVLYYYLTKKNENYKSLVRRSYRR

Row | SMILES | growth inhibition (MTS assay) (NB4 cells) | growth inhibition (MTS assay) (HL60 cells [1]) | IC50 (HDAC 3) | differentiation (CD11b expression, flow cytometry) (HL60 cells [2]) | transcription modulating activity compared with ATRA [3] | CYP26 RNA expression ([3]; 1 day, Q-RT-PCR, normalised to BACT, control set to 1.0) | CYP26 RNA expression [4] | melting point
1 | C=C1CN(Cc2ccc(C(=O)Nc3ccccc3N)cc2)C(=O)c2ccccc21 [Example 7, N-(2-Aminophenyl)-4-[(4-methylene-1-oxo-3,4-dihydroisoquino-2(1H)-yl)methyl]benzamide] | promotes growth inhibition | promotes growth inhibition | 28.7 nM | promotes growth inhibition and differentiation | exceeded that of ATRA | induces expression of CYP26 | induces expression of CYP26 | –
2 | C=C1CN(Cc2ccc(C(=O)Nc3ccccc3N)cc2)C(CC(=O)O)c2ccccc21 (stereo not drawn) [Example 9, [2-(4-{[(2-Aminophenyl)amino]carbonyl}benzyl)-4-methylene-1,2,3,4-tetra hydroisoquinolin-1-yl]acetic acid] | – | – | 797 nM | – | – | – | – | > 230 °C
